{
  "source": "paper PMC12648288",
  "about": "“Drastic Impact of Donor Substituents on Xanthenes in the PDT of Glioblastoma” (JACS Au, 2025)",
  "key": {"[1]": {"tested_on": "U118MG glioblastoma cells", "experiment": "MTT cell viability, dark and PDT", "type": "cell-based, human", "description": "(§1) The time- and concentration-dependent effects of NSeAze and NSeMorph on glioblastoma cells were determined by using the MTT assay (Figure S7). In this regard, U118MG and U87MG cells were administered with NSeMorph (0.5–20 μM) and NSeAze (0.01–2.5 μM) for 24 h to evaluate their dark toxicity. Before PDT application, both cell lines were treated as indicated for 1 h and then exposed to 660 nm LED light for 2 and 1 h, respectively (Figure ). Following overnight incubation, the resulting cell viability was calculated and compared to the effect of both compounds in the absence of irradiation. […]\n(§2) Cell Culture and Treatment\n(§3) Human glioblastoma cell lines (U118MG and U87MG) and healthy mouse fibroblast cells (L929) were cultured in DMEM high glucose medium supplemented with 10% fetal bovine serum (FBS), 2 mM glutamine, 1% penicillin/stremptomycin, 0.5% amphotericin B, and incubated at 37 °C with 5% CO2. NSeMorph and NSeAze were dissolved in cell culture-grade DMSO and further diluted in complete medium for experimental use. For phototoxicity analysis, cells were administered with NSeMorph […]\n(§4) mW/cm2) irradiation for 2 h in NSeMorph-treated groups and 1 h in NSeAze-treated groups. Then, each group were incubated for further 24 h in the dark to allow for resting. On the other hand, the dark toxicity of both agents was detected following the same treatment under identical conditions without LED irradiation. To determine the involvement of distinct ROS types, cells were pretreated for 1 h with selective […]\n(§5) scavengers prior to photosensitizer exposure. The scavengers included NAC (5 mM), NaN3 (5 mM), histidine (5 mM), Tiron (100 µM), mannitol (25 mM) and Trolox (25 µM).\n(§6) Cell viability was then assessed following irradiation. For index calculations, all cells were treated with the increasing concentrations (0.5-500 µM) of NSeMorph and NSeAze for 24 h. Final DMSO concentrations were kept below 0.5% (v/v) in all […]\n(§7) PI=IC50, dark /IC50, light\n(§8) SI= IC50, light, healthy cells/IC50, light, cancer cells\n(§9) TI= IC50, dark, healthy cells/IC50, light, cancer cells\n(§10) The viability of cells treated with NSeMorph and NSeAze was determined with MTT (3-[4,5-dimethylthiazol-2-yl]-2,5-diphenyltetrazoliumbromide) assay. Following the administration of both compounds, the medium was discarded and cells were treated with fresh media containing MTT (0.5 mg/ml) for 2-4 h at 37 °C. Formazan crystals were then solubilized in 10% SDS in 0.01 N HCl, and absorbance was measured at 490 and 570 nm wavelength using microplate reader (Multiskan Sky, Thermo Scientific). Data were normalized to vehicle (DMSO)-treated controls. IC50 values were calculated using nonlinear regression analysis in GraphPad Prism 9.02 (GraphPad Software Inc.). All experiments were performed in technical and biological replicates"}, "U87MG glioblastoma cells": {"tested_on": "U87MG glioblastoma cells", "experiment": "MTT cell viability, dark and PDT", "type": "cell-based, human", "description": "as §1, §2, §3, §4, §5, §6, §7, §8, §9, §10"}, "U118MG cells": {"tested_on": "U118MG cells", "experiment": "AO/EtBr staining for cell death", "type": "cell-based, human", "conditions": "IC50 concentration, after irradiation", "description": "(§11) The rapid mitochondrial disruption often shifts the balance toward irreversible cell death pathways. […] In this regard, acridine orange/ethidium bromide (AO/EtBr) staining was performed to detect cell death. […]\n(§12) Acridine Orange/Ethidium Bromide (AO/EtBr) staining for cell death\n(§13) Dual acridine orange/ethidium bromide (AO/EtBr) staining was performed to discriminate live, early apoptotic and/or necrotic cells on the basis of membrane permeability.1,2 U87MG and U118MG cells were seeded in 24-well plates at a density of 5 × 10⁴ cells/well and treated with the IC₅₀ concentrations of the photosensitizers NSeMorph and NSeAze. After irradiation, cells were rested at 37 °C for 20 minutes, followed by staining with AO (2.5 µg/ml) and EtBr (2.5 µg/ml) in serum-free DMEM […]\n(§14) under dark conditions for an additional 20-30 minutes. Subsequently, cells were washed with 1X PBS, and confocal images were taken at 500/525 nm (ex/em) for AO […]\n(§15) Ta b l e S3. Comparison of recently reported PSs for the treatment of glioblastoma multiforme.\n(§16) Photosensitizer Abs* Mwt IC (μM) Cell Line PI Ref. […]"}, "U87MG cells": {"tested_on": "U87MG cells", "experiment": "AO/EtBr staining for cell death", "type": "cell-based, human", "conditions": "IC50 concentration, after irradiation", "description": "as §11, §12, §13, §14, §15, §16"}, "[2]": {"type": "physicochemical", "conditions": "pH 5.4", "description": "Before singlet oxygen trapping experiments were conducted, the photostability of NSeMorph and NSeAze was evaluated under irradiation with a 660 nm LED light source (24.3 mW/cm^2). […] Subsequently, their singlet oxygen generation capabilities were assessed in PBS buffer. 2,2′-(Anthracene-9,10-diyl)-bis(methylene)-dimalonic acid was used as a singlet oxygen trap to determine the quantum yields of singlet oxygen generation (ΦΔ). […] Furthermore, the ROS generation capabilities of the PSs were also evaluated using singlet oxygen sensor green (SOSG).\nThe gradual but pronounced lysosomal accumulation over time of NSeMoprh, coupled with only moderate mitochondrial targeting, restrict its ability to induce cell death via direct mitochondrial ROS production effectively. Conversely, NSeAze achieves rapid and efficient mitochondrial localization within the first hour of treatment in addition to significant lysosomal localization as well. […] To eliminate the possibility of degradation in lysosomes due to their acidic nature, the stabilities of both NSeMorph and NSeAze were evaluated at different pHs under both dark and light conditions.\nFigure S5. Photostability of NSeMorph (20 μM) in sodium citrate buffer (1% DMSO) a. pH 5.4 and e. pH 6.4 upon irradiation with LED light (660 nm, 100 s total irradiation time) and its time dependent absorbance profile at b. pH 5.4, f. pH 6.4. […]"}, "[3]": {"conditions": "Homo sapiens, U-118-MG, 1 h incubation, 660 nm LED 2 h (NSeMorph) or 1 h (NSeAze), read-out: IC50 (light)"}, "[4]": {"conditions": "Homo sapiens, U-118-MG, 24 h, dark, 24 h, read-out: IC50 (dark)"}, "[5]": {"conditions": "Homo sapiens, U-87 MG, 1 h incubation, 660 nm LED 2 h (NSeMorph) or 1 h (NSeAze), read-out: IC50 (light)"}, "[6]": {"conditions": "Homo sapiens, U-87 MG, 24 h, dark, 24 h, read-out: IC50 (dark)"}, "[7]": {"conditions": "1 h incubation, 660 nm LED 2 h (NSeMorph) or 1 h (NSeAze), read-out: IC50 (light)"}},
  "note": "Like-named read-outs stand apart in the source and are kept apart here.",
  "data": [
    {"smiles": "c1cc2nc3ccc(=[N+]4CCC4)cc-3[se]c2cc1N1CCC1", "note": "[NSeAze]", "values": [
      {"measurement": "IC50", "setting": "[1]; Homo sapiens, U-118-MG, 1 h, 660 nm LED 1 h, read-out: IC50 (light)", "value": 0.461, "unit": "µM"},
      {"measurement": "IC50", "setting": "[1]; [3]", "value": "0.46 ± 0.02", "unit": "µM"},
      {"measurement": "IC50", "setting": "[1]; [4]", "value": "60.4 ± 2.6", "unit": "µM"},
      {"measurement": "IC50", "setting": "U87MG glioblastoma cells; Homo sapiens, U-87 MG, 1 h, 660 nm LED 1 h, read-out: IC50 (light)", "value": 0.456, "unit": "µM"},
      {"measurement": "IC50", "setting": "U87MG glioblastoma cells; [5]", "value": 0.38, "unit": "µM"},
      {"measurement": "IC50", "setting": "U87MG glioblastoma cells; [6]", "value": "65.8 ± 2.51", "unit": "µM"},
      {"measurement": "IC50", "setting": "U87MG glioblastoma cells; dark, 24 h, read-out: IC50 (dark)", "value": "65.9 ± 2.5", "unit": "µM"},
      {"measurement": "Cell death type (AO/EtBr)", "setting": "U118MG cells", "value": "late apoptosis/necrosis"},
      {"measurement": "Cell death type (AO/EtBr)", "setting": "U87MG cells", "value": "early apoptosis"},
      {"measurement": "Photostability", "setting": "[2]", "value": "no significant photodecomposition"}
    ]},
    {"smiles": "c1cc2nc3ccc(=[N+]4CCOCC4)cc-3[se]c2cc1N1CCOCC1", "note": "[NSeMorph]", "values": [
      {"measurement": "IC50", "setting": "[1]; [7]", "value": "8.02 ± 0.34", "unit": "µM"},
      {"measurement": "IC50", "setting": "[1]; [3]", "value": 8, "unit": "µM"},
      {"measurement": "IC50", "setting": "[1]; [4]", "value": "375 ± 17.4", "unit": "µM"},
      {"measurement": "IC50", "setting": "U87MG glioblastoma cells; [7]", "value": "15.8 ± 0.84", "unit": "µM"},
      {"measurement": "IC50", "setting": "U87MG glioblastoma cells; [5]", "value": 15.8, "unit": "µM"},
      {"measurement": "IC50", "setting": "U87MG glioblastoma cells; [6]", "value": "> 500", "unit": "µM"},
      {"measurement": "Cell death type (AO/EtBr)", "setting": "U118MG cells", "value": "early apoptotic pattern"},
      {"measurement": "Cell death type (AO/EtBr)", "setting": "U87MG cells", "value": "early apoptosis"},
      {"measurement": "Photostability", "setting": "[2]", "value": "no significant photodecomposition"}
    ]}
  ]
}
